From patent US10112881B2, “Skin lightening compounds” (WiSys Technology Foundation, Inc., priority 2014, dated 2018)
Entries after “also recorded” stand apart in the source; their conditions may differ.

Columns and labels:
zebrafish embryos [1] = test: Apoptosis labeling in compound-treated embryos; type: in vivo; conditions: fluorescence/enzymatic labeling
From the text: FIGS. 7A-7B are photographs and an associated graph illustrating the cell death by skin lightening compounds. Embryos treated with skin lightening compounds were fixed and processed for enzymatic labeling for apoptosis.
Although it is rare, one compound MoTP was reported to cause cell death specifically in melanocyte. We tested whether other skin lightening compounds can also cause melanocyte cell death. Using a fluorescence labeling assay, we were able to detect the apoptotic cells. Although we were not able to specifically identify apoptotic melanocyte due to technical difficulties, we were able to evaluate the overall cell death in the compound treated embryos.

dct mRNA = test: Quantitative PCR of dct mRNA in treated embryos; type: in vivo, zebrafish; conditions: qPCR
From the text: (§1) We also carried out qPCR to measure the dct mRNA expression.

[2] = tested on: purified tyrosinase from mushroom; test: In vitro tyrosinase assay (L-tyrosine to DOPAchrome, absorbance 490 nm); type: biochemical; conditions: absorbance at 490 nm at 20', 60' and 120' of reaction
From the text: The assay is set up by mixing purified tyrosinase from mushroom with L-tyrosine with or without test chemical. Active tyrosinase will turn L-tyrosine into DOPAchrome which is orange color. The absorbance at 490 nm which reflects the amount of DOPAchrome and thus the tyrosinase activity was taken at 20′, 60′ and 120′ of reaction.
Most of the current skin-lightening compounds reduce pigment by inhibiting the melanin synthesis enzyme called tyrosinase (FIG. 5). […] The assay is usually done by mixing purified tyrosinase from mushroom with L-tyrosine, which is the substrate of tyrosinase, and with or without test chemical. Reaction with active tyrosinase will quickly turn L-tyrosine into a color product called dopachrome which is an intermediate product in the melanin synthesis pathway. The amount of dopachrome can be measured by a spectrophotometer at A490 nm visible light.

zebrafish embryos [3] = test: Reduction of existing pigment in zebrafish embryos (Protocol 2); type: in vivo; conditions: embryos incubated from 48 hpf to 68 hpf
Method: Embryos were incubated in compounds from 48 hpf when some pigments already formed to 68 hpf.
(§2) The testing protocols for these compounds are as follows: • a. To test the inhibition of pigment formation, the zebrafish embryos were treated with the drugs from 24 to 72 hours post-fertilization (hpf). The embryos were monitored and imaged throughout their development to track the development of melanin pigment relative to a control group to which water was administered (Protocol 1). • b. […] The embryos were again monitored and imaged throughout their development relative to a control group to which water was administered (Protocol 2). • c. Additionally, to test the ability of the pigment to recover after being treated with our drugs, all embryos were treated at 24 hpf with the chemicals until the 68 hpf or 72 hpf time period, then washed with water to remove the treatment. The embryos were again monitored and imaged throughout their development relative to a control group to which water was administered (Protocol 3). Comparison of Skin-Lightening Compounds
Thus, we compared the compound effect on existing pigment using older embryos at 48 hpf. The embryos were again monitored and imaged throughout their development according to Protocol 2.

[4] = tested on: dct-expressing cells (melanocyte precursors); test: In situ hybridization for dct-expressing cells; type: in vivo, zebrafish; conditions: cell counts
From the text: The cDNA of these genes was cloned and used to generate anti-sense RNA probes.
as §1

[5] = tested on: Mouse melanoma cell line B16-F10; test: Mouse melanoma cell proliferation (cell count after 48 hours); type: cell-based
From the text: (§3) Mouse melanoma cell line B16-F10 is a commonly used mammalian cells for melanogenesis and melanocyte studies. […] MoTP. […] The two graphs on top are cell number per 0.5 cubic mm. The Y axis in the lower two graphs is absorbance of 490 nm visible light by melanin. Higher absorbance means more melanin.
(§4) In this experiment, we first seeded approximately the same number of cells in each well of the 24-well plate supplied with fresh complete growth medium with different skin lightening compound. After 48 hours of incubation, we counted the cell numbers to evaluate the cell proliferation and lysed the cells from additional identically set-up wells and measured the total amount of melanin in treated melanoma.

zebrafish embryos [6] = conditions: embryos incubated 24 to 72 hpf
Method: Zebrafish embryos were incubated in compounds from 24 hpf (hours post fertilization) to 72 hpf.
as §2
The black pigment (or melanin) is very easy to observe in zebrafish. In brief, adult zebrafish are taken to breed embryos. Morphologically normal embryos of 24 hours post fertilization (hpf) stage will be selected for incubation in the drugs from 24 to 72 hours. During the incubation, the embryos are monitored and imaged (see FIG. 1) to track the development of melanin. […] To broaden the comparison with other skin-lightening products, this project can also test other compounds, kojic acid, gallic acid, (2-Morpholinobutyl)-4-thiophenol/MoTP and Haginin/phenoxidiol. […] In the meantime, the whole organism context also allows us to examine the toxicological profile, if any, of these compounds. The same protocol is also used for the experiments using the melanoma forming zebrafish.

[7] = tested on: Mouse melanoma cell line B16-F10; test: Melanin content of mouse melanoma cells (absorbance 490 nm); type: cell-based; conditions: 48 hours
From the text: as §3, §4

zebrafish embryos [8] = test: Pigment recovery after chemical withdrawal (Protocol 3); type: in vivo; conditions: treated 24-72 hpf, washed, imaged 24 hours after wash
Method: FIG. 4 are photographs of the pigment recovery after chemical withdrawal. Zebrafish embryos were treated with skin lightening compounds from 24-72 hpf followed by several washes to remove the compounds then incubated in […]. Twenty four hours after wash, the embryos were imaged.
Comparison of Skin-Lightening Compounds
It has been reported that melanin usually reappears after the withdrawal of skin lightening products. We studied this question by treating fish embryos from 24-72 hpf, according to Protocol 3, to create strong pigment reduction then wash off the compounds and track the pigment recovery. […] A drug with the ability to permanently remove or inhibit pigment might pose a concern of causing vitiligo.

Compound	apoptosis / overall cell death in treated embryos (zebrafish embryos [1])	dct mRNA expression (dct mRNA)	tyrosinase inhibition [2]	reduction of existing pigment (zebrafish embryos [3])	number of dct+ cells [4]	cell proliferation ([5]; 40 uM)	inhibition of pigment formation (zebrafish embryos [6])	overall efficacy of the skin-lightening effects (rank order) (zebrafish embryos [6])	melanin synthesis / melanin amount ([7]; 10 uM)	melanin synthesis / melanin amount ([7]; 40 uM)	cell proliferation ([5]; concentration not given)	melanin synthesis / melanin amount ([7]; concentration not given)	pigment recovery after chemical withdrawal (zebrafish embryos [8])	cell proliferation ([5]; 100 mM)	reduction of existing pigment (zebrafish embryos [3]; listed as Phenoxidiol)	apoptosis / overall cell death in treated embryos (zebrafish embryos [1]; listed as Niacinamide)
COc1cc(O)cc(/C=C/Oc2ccccc2C)c1 [A11, 2-Methylphenyl-E-(3-hydroxy-5-methoxy)-styryl ether]	no significant cell death	significantly lower expression of dct expression; also recorded: reduction of dct expression	does not inhibit tyrosinase; also recorded: no inhibition at all	strong and quick pigment reduction; also recorded: strong in reducing existing pigment; also recorded: strong reduction of existing pigment	fewer dct-positive cells; also recorded: significant lower number of dct+ cells	slightly inhibited the melanoma cell proliferation; also recorded: significantly inhibit the melanocyte proliferation	strong pigmentation inhibition	PTU=phenoxidiol=A11=MoTP>Arbutin>Niacinamide>Tretinoin>kojic acid>gallic acid	no melanin reduction	slight reduction; also recorded: reduced						
N#CC(=C(N)Sc1ccccc1N)C(C#N)=C(N)Sc1ccccc1N [MEK-I]		no change in dct expression			no effect on the number of dct expressing cells and not						didn't seem to have any effect on melanocyte proliferation	not				
CC1=C(/C=C/C(C)=C/C=C/C(C)=C/C(=O)O)C(C)(C)CCC1 [tretinoin, Tretinoin]	significant apoptosis			minimal or no pigment reduction			different degrees of pigment inhibition	PTU=phenoxidiol=A11=MoTP>Arbutin>Niacinamide>Tretinoin>kojic acid>gallic acid			didn't seem to have any effect on melanocyte proliferation	significant reduction of melanin				
NC(=S)Nc1ccccc1 [PTU, phenylthiourea]		slightly increase of dct expression	strong inhibition	moderately reduce existing pigment	no effect on the number of dct expressing cells		strong pigmentation inhibition	PTU=phenoxidiol=A11=MoTP>Arbutin>Niacinamide>Tretinoin>kojic acid>gallic acid			didn't seem to have any effect on melanocyte proliferation	significant reduction of melanin	not so			
OC[C@H]1O[C@@H](Oc2ccc(O)cc2)[C@H](O)[C@@H](O)[C@@H]1O [arbutin, Arbutin]		slightly increase of dct expression	strong inhibition	moderately reduce existing pigment			different degrees of pigment inhibition	PTU=phenoxidiol=A11=MoTP>Arbutin>Niacinamide>Tretinoin>kojic acid>gallic acid				significant reduction of melanin		significantly inhibit the melanocyte proliferation		
Oc1ccc(C2=Cc3ccc(O)cc3OC2)cc1 [phenoxidiol, phenoxidiol/haginin]	large increase of apoptosis; also recorded: significant apoptosis	significantly lower expression of dct expression; also recorded: reduction of dct expression		strong in reducing existing pigment	fewer dct-positive cells; also recorded: significant lower number of dct+ cells		strong pigmentation inhibition	PTU=phenoxidiol=A11=MoTP>Arbutin>Niacinamide>Tretinoin>kojic acid>gallic acid					not so		strong reduction of existing pigment	
O=c1cc(CO)occ1O [kojic acid]			strong inhibition	minimal or no pigment reduction			different degrees of pigment inhibition	PTU=phenoxidiol=A11=MoTP>Arbutin>Niacinamide>Tretinoin>kojic acid>gallic acid			significantly inhibit the melanocyte proliferation	significant reduction of melanin				
O=C(O)c1cc(O)c(O)c(O)c1 [gallic acid]			enhancement of tyrosinase activity				different degrees of pigment inhibition	PTU=phenoxidiol=A11=MoTP>Arbutin>Niacinamide>Tretinoin>kojic acid>gallic acid								
NC(=O)c1cccnc1 [niacinamide, Niacinamide]	significant apoptosis						different degrees of pigment inhibition	PTU=phenoxidiol=A11=MoTP>Arbutin>Niacinamide>Tretinoin>kojic acid>gallic acid				not				large increase of apoptosis
(2-Morpholinobutyl)-4-thiophenol [MoTP]	slightly higher level of apoptosis; also recorded: slight increase of apoptosis		enhancement of tyrosinase activity	moderately reduce existing pigment; also recorded: strong reduction of existing pigment			strong pigmentation inhibition	PTU=phenoxidiol=A11=MoTP>Arbutin>Niacinamide>Tretinoin>kojic acid>gallic acid			killed all the melanoma cells; also recorded: significantly inhibit the melanocyte proliferation		limited recovery			
